The test system of data set [1] is ligand-binding protein (in this example, an antibody). Put plainly: Panning of phage-displayed peptide library against a ligand-binding protein (antibody), protein A-coated dishes. To be noted: phage-expressed peptide, compared with the general phage population.
Data set [2] in a line: Solubility of the secreted expressed peptide. The text has this: The oligonucleotide encoding this peptide is cloned into a vector that allowed secretion of the expressed peptide. The peptide […]

Some results are limits rather than exact numbers.

With “CDDQYYTDHEQGKCEVALYYTG [SEQ. ID. NO.: 63, peptide selected from phage library]”, in data set [1], the ligand binding affinity result is on record as “high affinity”.

For the sequence “TQSKCSTDHWLGYIEYFIMCTY [SEQ. ID. NO.: 62]”, in data set [1], the ligand binding affinity result is recorded as “highest affinity”. For the same sequence, the “soluble at a concentration of” value in data set [2] was at least 4 mg/mL.

These data come from patent US5770434A, “Soluble peptides having constrained, secondary conformation in solution and method of making same” (IXSYS Incorporated, priority 1995, dated 1998).
